Source: patent US5227299A, “NADH kinase and a process for producing the same” (Noda Institute for Scientific Research, priority 1991, dated 1993)

Experiments:
[1] = test system: NADH kinase (the present enzyme); assay: Inhibition, activation and stabilization of the present enzyme; type: biochemical, Pichia membranaefaciens
[2] = test system: NADH kinase (the present enzyme); assay: Substrate specificity of the present enzyme (NADH vs NAD+); type: biochemical, Pichia membranaefaciens; conditions: for Specificity (relative activity, NADH = 100): Table 3, present enzyme; for Relative activity (%): substrate NADH or NAD+, ATP, pH 8.5, 30° C., 20 minutes, percentage based on NADH
Method: The substrate specificity of the present enzyme was examined under the following reaction conditions. […]
To 0.9 ml of each of the above substrate solutions containing NADH or NAD^+ was added 0.1 ml of 23 U/ml of the present enzyme, and the reaction was carried out at 30° C. for 20 minutes. Then, the reaction was terminated by heat treatment at 100° C. for 2 minutes, and the denatured protein was removed, after which the amount of NADPH or NADP^+ produced by the reaction of the corresponding substrate was measured as follows. As a control solution, there was used a mixture of each substrate solution and the present enzyme in which the reaction had been terminated immediately after mixing them.
With 1 ml of each of the reaction solutions obtained in the above was mixed 1 ml of a color-producing solution consisting of 10 mM G-6-P, 50 mM HEPPS buffer (pH 8.0), 10 mM magnesium chloride, 0.1% bovine serum albumin, 2.5 IU/ml G-6-P dehydrogenase (NADP^+ -dependent), 5 IU/ml diaphorase and 250 μM 2,6-dichlorophenolindophenol. The resulting mixture was immediately introduced into a constant-temperature cuvette of STASAR III spectrophotometer of Gilford and subjected to reaction at 30° C. Simultaneously with the reaction, the change of absorbance at 600 nm was measured with the lapse of time, and the difference (ΔOD600 nm /min) between absorbance values 1 minute and 2 minutes after the initiation of the coloration reaction was taken as a measured value. As to relative activity (%), a measured value (ΔOD600 nm /min) obtained by using NAD^+ as a substrate was shown as a percentage based on a measured value (ΔOD600 nm /min) obtained by using NADH as a substrate.

NADH kinase A = conditions: Table 3, NADH kinase A; cited from earlier work
NADH kinase B = conditions: Table 3, NADH kinase B; cited from earlier work

With `OC[C@H]1O[C@@](CO)(O[C@H]2O[C@H](CO)[C@@H](O)[C@H](O)[C@H]2O)[C@@H](O)[C@@H]1O` [saccharose] the “Stabilization of the present enzyme” value [1] was “stabilized”.
With `CC(=O)O` [sodium acetate] the “Activation of the present enzyme” value [1] was “activated”.
For `NC(=O)C1=CN([C@@H]2O[C@H](COP(=O)(O)OP(=O)(O)OC[C@H]3O[C@@H](n4cnc5c(N)ncnc54)[C@H](O)[C@@H]3O)[C@@H](O)[C@H]2O)C=CC1` [NADH], the “Action of the present enzyme on the substrate” value [2] was “very specific”, the “Specificity (relative activity, NADH = 100)” value [2] was 100 and the “Relative activity (%)” value [2] was 100%. The “Specificity (relative activity, NADH = 100)” value (NADH kinase A) was 100 and the “Specificity (relative activity, NADH = 100)” value (NADH kinase B) was 100.
In the case of `[Cd+2]` [Cd^2+], the “Inhibition of the present enzyme” value [1] is reported as “strongly inhibited”.
With `O=C(O)c1cc[c]([Hg][Cl])cc1` [p-CMB, p-chloromercuribenzoic acid, reference compound] the “Inhibition of the present enzyme” value [1] was “strongly inhibited”.
With `CCCCCCCCCCCCOS(=O)(=O)[O-].[Na+]` [SDS, sodium lauryl sulfate, reference compound] the “Inhibition of the present enzyme” value [1] was “strongly inhibited”.
With `NC(=O)c1ccc[n+]([C@@H]2O[C@H](COP(=O)([O-])OP(=O)(O)OC[C@H]3O[C@@H](n4cnc5c(N)ncnc54)[C@H](O)[C@@H]3O)[C@@H](O)[C@H]2O)c1` [NAD^+] the “Action of the present enzyme on the substrate” value [2] was “hardly acts”, the “Specificity (relative activity, NADH = 100)” value [2] was 0.9 and the “Relative activity (%)” value [2] was 0.9%. For the same molecule, the “Specificity (relative activity, NADH = 100)” value (NADH kinase A) was 1.7 and the “Specificity (relative activity, NADH = 100)” value (NADH kinase B) was 1.6.
For `[Pb+2]` [Pb^2+], the “Inhibition of the present enzyme” value [1] was “strongly inhibited”.
In the case of `[Mg+2]` [Mg^2+], the “Stabilization of the present enzyme” value [1] is reported as “stabilized”.
For `[Zn+2]` [Zn^2+], the “Inhibition of the present enzyme” value [1] was “strongly inhibited”.
With `[Hg+2]` [Hg^2+] the “Inhibition of the present enzyme” value [1] was “strongly inhibited”.
In the case of `N.N.O=S(=O)(O)O` [ammonium sulfate], the “Stabilization of the present enzyme” value [1] is reported as “stabilized”.
With `[Mn+2]` [Mn^2+] the “Stabilization of the present enzyme” value [1] was “stabilized”.
In the case of `[Cu+2]` [Cu^2+], the “Inhibition of the present enzyme” value [1] is reported as “strongly inhibited”.
